*1 amine or outer side, *2 acyl side, *3 side chain or, on linkers, in order; H or OH if unused. Where a SMILES comes first, the peptide text is derived from it. Bridges are numbered along the chain shown (N, C = ends). [ ]: non-standard residue; d: D form. The star is where a group is joined. ξ: configuration not given here. hPhe(3-Cl-4-CF3) = N[C@@H](CCc1ccc(C(F)(F)F)c(Cl)c1)C(=O)O; NPrPhe(4-CF3) = CCCN[C@@H](Cc1ccc(C(F)(F)F)cc1)C(=O)O; X31 = C=CCN([C@@H](Cc1ccccc1)C(=O)[*:2])[*:1]; NMeGly(cPent) = CN[C@H](C(=O)O)C1CCCC1; NMeNle(5-ene) = C=CCC[C@H](NC)C(=O)O; NMeGly(cBu) = CN[C@H](C(=O)O)C1CCC1; dIle(3ξ) = CCC(C)[C@@H](N)C(=O)O; NMeD = CN[C@@H](CC(=O)O)C(=O)O; NMeL = CN[C@@H](CC(C)C)C(=O)O; Morpholide = C1CN(*)CCO1; Ac5c = NC1(C(=O)O)CCCC1; Sar = CNCC(=O)O
How the values were obtained:
[1] = molecular target: GDP-bound NRAS wild-type protein (Homo sapiens, UniProt P01111); experiment: Binding to NRAS by surface plasmon resonance (SPR), KD and KD ratio to KRAS
Chain of GDP-bound NRAS wild-type protein (P01111 whole entry): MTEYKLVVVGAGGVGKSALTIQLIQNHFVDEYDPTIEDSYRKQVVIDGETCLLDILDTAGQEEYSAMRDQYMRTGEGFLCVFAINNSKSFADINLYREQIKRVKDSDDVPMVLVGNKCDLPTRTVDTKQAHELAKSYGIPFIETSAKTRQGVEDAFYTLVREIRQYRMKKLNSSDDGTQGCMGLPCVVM
Method in brief: (§1)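 SPR, 30°C: Avi-biotin RAS·GDP captured via Biotin CAPture (~100–300 RU); running buffer HBS pH 7.4, 1 mM DTT, 10 mM MgCl2, 0.01% Tween 20, 10 µM GDP, 4% DMSO. Single-cycle kinetics, 100 µL/min, 75 s injections; 1:1 model → KD.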

[2] = molecular target: HRAS wild-type protein (Homo sapiens, UniProt P01112); experiment: Binding to HRAS by surface plasmon resonance (SPR), KD and KD ratio to KRAS
Chain of HRAS wild-type protein (P01112 whole entry): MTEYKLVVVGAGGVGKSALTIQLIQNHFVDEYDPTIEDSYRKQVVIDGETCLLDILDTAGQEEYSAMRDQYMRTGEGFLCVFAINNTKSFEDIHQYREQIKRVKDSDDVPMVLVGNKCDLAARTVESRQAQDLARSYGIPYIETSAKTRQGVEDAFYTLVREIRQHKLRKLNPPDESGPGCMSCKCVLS
Method in brief: as §1

[3] = tested on: human lung cancer strain NCI-H441; format: cell-based
Method in brief: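 Proliferation was scored by […] measured after the reagent was added to cultures kept at 37°C in 5% carbon dioxide.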

[4] = ratio of the KD value with respect to GDP-bound NRAS wild-type protein to the KD value with respect to KRAS
[5] = ratio of the KD value with respect to HRAS wild-type protein to the KD value with respect to KRAS

IC50 [3] [nM] | SMILES | NRAS /KRAS ([1]; ratio of KD value for GDP-bound NRAS wild-type protein to KD value for KRAS (SPR)) | HRAS /KRAS ([2]; ratio of KD value for HRAS wild-type protein to KD value for KRAS (SPR)) | NRAS /KRAS [1, 4] | HRAS /KRAS [2, 5] | NRAS /KRAS ([1]; ratio of KD for GDP-bound NRAS wild-type protein to KD for KRAS) | HRAS /KRAS ([2]; ratio of KD for HRAS wild-type protein to KD for KRAS)
107 | CC[C@H](C)[C@@H]1NC(=O)[C@H](CC)N(C)C(=O)C[C@@H](C(=O)N(C)C)N(C)C(=O)[C@H](C2CCCC2)N(C)C(=O)C2(CCC2)NC(=O)[C@@H]2CCCN2C(=O)[C@H](CCc2cc(C)c(Cl)c(C)c2)NC(=O)CN(C)C(=O)[C@H](Cc2ccc(C(F)(F)F)cc2)N2CC/C=C\C[C@@H](C2=O)N(C)C(=O)CN(C)C1=O [PP1822] | A (a compound having 10 or more and less than 20 is denoted as A) | B (a compound having 3 or more and less than 10 is denoted as B) |  |  |  | 
2800 | C=CCC[C@H]1C(=O)N(CC=C)[C@@H](Cc2ccccc2)C(=O)N(C)CC(=O)N[C@@H](CCc2ccc(C(F)(F)F)c(Cl)c2)C(=O)N2CCC[C@H]2C(=O)NC2(CCCC2)C(=O)N(C)[C@@H](C2CCCC2)C(=O)N(C)[C@H](C(=O)N2CCOCC2)CC(=O)N(C)[C@@H](CC(C)C)C(=O)N[C@H](C(C)CC)C(=O)N(C)CC(=O)N1C (stereo partly drawn) [PP0599] ([NMeL][dIle(3ξ)][Sar][NMeNle(5-ene)][X31][Sar][hPhe(3-Cl-4-CF3)]P[Ac5c][NMeGly(cPent)][NMeD]-Morpholide; lactam N-11) |  |  | C (A compound having a KD ratio of 0.1 or more and less than 3 is denoted as C) | B (a compound having 3 or more and less than 10 is denoted as B) |  | 
13 | CC[C@H](C)[C@@H]1NC(=O)[C@H](C)N(C)C(=O)C[C@@H](C(=O)N2CCOCC2)N(C)C(=O)[C@H](C2CCCC2)N(C)C(=O)C2(CCCC2)NC(=O)[C@@H]2CCCN2C(=O)[C@H](CCc2cc(F)c(C(F)(F)F)c(F)c2)NC(=O)CN(C)C(=O)[C@H](Cc2ccc(C(F)(F)F)cc2)N2CCCC[C@@H](C2=O)N(C)C(=O)CN(C)C1=O [PP0549] |  |  | C (A compound having a KD ratio of 0.1 or more and less than 3 is denoted as C) | B (a compound having 3 or more and less than 10 is denoted as B) |  | 
3.9 | CCCN1C(=O)CN(C)C(=O)CN(C)C(=O)[C@H]([C@@H](C)CC)NC(=O)[C@H](C2CCC2)N(C)C(=O)C[C@@H](C(=O)N2CCOCC2)N(C)C(=O)[C@H](C2CCCC2)N(C)C(=O)C2(CCCC2)NC(=O)[C@@H]2CCCN2C(=O)[C@H](CCc2ccc(C(F)(F)F)c(Cl)c2)NC(=O)CN(C)C(=O)[C@@H]1Cc1ccc(C(F)(F)F)cc1 [PP0188] ([NMeGly(cBu)]I[Sar][Sar][NPrPhe(4-CF3)][Sar][hPhe(3-Cl-4-CF3)]P[Ac5c][NMeGly(cPent)][NMeD]-Morpholide; lactam N-11) |  |  |  |  | B (a compound having 3 or more and less than 10 is denoted as B) | C (A compound having a KD ratio of 0.1 or more and less than 3 is denoted as C)
5.4 | CCC[C@H]1C(=O)N[C@@H]([C@@H](C)CC)C(=O)N(C)CC(=O)N(C)[C@H]2C/C=C\CCN(C2=O)[C@@H](Cc2ccc(C(F)(F)F)cc2)C(=O)N(C)CC(=O)N[C@@H](CCc2ccc(C(F)(F)F)c(OC)c2)C(=O)N2C[C@H](OCC)C[C@H]2C(=O)NC2(CC(C)(C)C2)C(=O)N(C)[C@@H](C(CC)CC)C(=O)N(C)[C@H](C(=O)N(C)C)CC(=O)N1C [PP2160] |  |  | A (a compound having 10 or more and less than 20 is denoted as A) | A (a compound having 10 or more and less than 20 is denoted as A) |  | 
22.5 | CCCN(C)C(=O)[C@@H]1CC(=O)N(C)[C@@H](CC(C)C)C(=O)N[C@@H]([C@@H](C)OC)C(=O)N(C)CC(=O)N(C)[C@H]2C/C=C\CCN(C2=O)[C@@H](Cc2ccc(C(F)(F)F)cc2)C(=O)N(C)CC(=O)N[C@@H](CCc2cc(F)c(C(F)(F)F)c(F)c2)C(=O)N2C[C@H](OCC)C[C@H]2C(=O)NC2(CC(C)(C)C2)C(=O)N(C)[C@@H](C2CCCC2)C(=O)N1C [PP1917] |  |  | A (a compound having 10 or more and less than 20 is denoted as A) | A (a compound having 10 or more and less than 20 is denoted as A) |  | 
4.1 | CCO[C@@H]1C[C@H]2C(=O)NC3(CCC3)C(=O)N(C)[C@@H](C3CCCC3)C(=O)N(C)[C@H](C(=O)N(C)C)CC(=O)N(C)[C@@H](CC3CCC3)C(=O)N[C@@H]([C@@H](C)CC)C(=O)N(C)CC(=O)N(C)[C@H]3CCCCN(C3=O)[C@@H](Cc3ccc(C(F)(F)F)cc3)C(=O)N(C)CC(=O)N[C@@H](CCc3cc(F)c(C(F)(F)F)c(F)c3)C(=O)N2C1 [PP0698] |  |  | C (A compound having a KD ratio of 0.1 or more and less than 3 is denoted as C) | C (A compound having a KD ratio of 0.1 or more and less than 3 is denoted as C) |  | 
